In ChEMBL document CHEMBL1909046, “DrugMatrix in vitro pharmacology data”:

Key:
[1] = molecular target: T1, Cytochrome P450 1A2 (Homo sapiens, UniProt P05177); conditions: bti-tn-5b1-4; note: in other assays of this panel Not Active means under 50% inhibition at 10 µM
T1 sequence (P05177 whole entry): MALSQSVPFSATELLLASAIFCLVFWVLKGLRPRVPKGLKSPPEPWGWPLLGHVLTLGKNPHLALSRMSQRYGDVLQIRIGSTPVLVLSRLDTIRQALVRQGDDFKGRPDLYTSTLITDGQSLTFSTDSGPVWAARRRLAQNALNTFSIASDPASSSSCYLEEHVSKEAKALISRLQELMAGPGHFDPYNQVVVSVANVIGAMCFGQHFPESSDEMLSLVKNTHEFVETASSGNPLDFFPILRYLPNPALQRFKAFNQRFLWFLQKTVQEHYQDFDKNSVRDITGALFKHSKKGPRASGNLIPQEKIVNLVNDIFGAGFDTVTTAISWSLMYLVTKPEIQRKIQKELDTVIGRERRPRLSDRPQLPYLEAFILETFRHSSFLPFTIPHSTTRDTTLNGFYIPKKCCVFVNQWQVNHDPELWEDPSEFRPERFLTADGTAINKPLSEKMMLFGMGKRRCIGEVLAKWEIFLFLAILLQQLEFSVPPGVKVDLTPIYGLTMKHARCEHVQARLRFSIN

[2] = molecular target: T2, Cysteinyl leukotriene receptor 1 (Homo sapiens, UniProt Q9Y271); assay type: cell membranes, CHO-K1, Membrane; conditions: cho-k1; note: in other assays of this panel Not Active means under 50% inhibition at 10 µM
T2 sequence (Q9Y271 whole entry): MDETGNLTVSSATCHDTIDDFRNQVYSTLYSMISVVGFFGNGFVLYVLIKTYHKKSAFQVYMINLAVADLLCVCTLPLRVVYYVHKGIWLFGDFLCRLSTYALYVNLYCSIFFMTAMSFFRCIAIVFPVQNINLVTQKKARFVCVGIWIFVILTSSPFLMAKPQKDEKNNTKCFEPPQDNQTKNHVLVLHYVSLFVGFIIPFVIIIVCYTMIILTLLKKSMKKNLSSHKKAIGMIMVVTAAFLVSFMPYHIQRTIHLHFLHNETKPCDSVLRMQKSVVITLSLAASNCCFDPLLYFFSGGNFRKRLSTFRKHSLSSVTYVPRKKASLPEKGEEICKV

[3] = molecular target: Estrogen receptor beta (Homo sapiens, UniProt Q92731); conditions: sf9; note: in other assays of this panel Not Active means under 50% inhibition at 10 µM
[4] = molecular target: T3, Neuropeptide Y receptor type 1 (Homo sapiens, UniProt P25929); assay type: cell membranes, Membrane; conditions: sk-n-mc; note: in other assays of this panel Not Active means under 50% inhibition at 10 µM
T3 sequence (P25929 whole entry): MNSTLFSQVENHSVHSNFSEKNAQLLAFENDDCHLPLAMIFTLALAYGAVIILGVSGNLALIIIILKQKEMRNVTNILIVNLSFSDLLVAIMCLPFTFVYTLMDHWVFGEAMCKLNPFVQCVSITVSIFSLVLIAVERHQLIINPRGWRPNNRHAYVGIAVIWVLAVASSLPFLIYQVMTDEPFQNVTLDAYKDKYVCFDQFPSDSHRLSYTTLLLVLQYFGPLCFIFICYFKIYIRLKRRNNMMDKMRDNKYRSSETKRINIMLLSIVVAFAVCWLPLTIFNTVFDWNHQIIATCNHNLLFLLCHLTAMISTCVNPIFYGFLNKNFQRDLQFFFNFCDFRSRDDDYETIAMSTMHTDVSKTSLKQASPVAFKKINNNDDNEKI

[5] = DRUGMATRIX: Glutamate, AMPA radioligand binding (ligand: [3H] AMPA); assay type: cell membranes, Rattus norvegicus, Wistar, Cerebral cortex, Membrane; conditions: Not Active = under 50% inhibition at 10 µM
[6] = molecular target: Cytochrome P450 2D6 (Homo sapiens, UniProt P10635); conditions: bti-tn-5b1-4; note: in other assays of this panel Not Active means under 50% inhibition at 10 µM
[7] = DRUGMATRIX: Leukotriene, BLT (LTB4) radioligand binding (ligand: [3H]LTB4); assay type: cell membranes, Membrane; conditions: u-937; Not Active = under 50% inhibition at 10 µM
[8] = molecular target: T4, Amine oxidase [flavin-containing] A (Homo sapiens, UniProt P21397); assay: DRUGMATRIX: Monoamine Oxidase MAO-A enzyme inhibition (substrate: Kynuramine); parameters: species or system BTI-TN-5B1-4; conditions: bti-tn-5b1-4; Not Active = under 50% inhibition at 10 µM
T4 sequence (P21397 whole entry): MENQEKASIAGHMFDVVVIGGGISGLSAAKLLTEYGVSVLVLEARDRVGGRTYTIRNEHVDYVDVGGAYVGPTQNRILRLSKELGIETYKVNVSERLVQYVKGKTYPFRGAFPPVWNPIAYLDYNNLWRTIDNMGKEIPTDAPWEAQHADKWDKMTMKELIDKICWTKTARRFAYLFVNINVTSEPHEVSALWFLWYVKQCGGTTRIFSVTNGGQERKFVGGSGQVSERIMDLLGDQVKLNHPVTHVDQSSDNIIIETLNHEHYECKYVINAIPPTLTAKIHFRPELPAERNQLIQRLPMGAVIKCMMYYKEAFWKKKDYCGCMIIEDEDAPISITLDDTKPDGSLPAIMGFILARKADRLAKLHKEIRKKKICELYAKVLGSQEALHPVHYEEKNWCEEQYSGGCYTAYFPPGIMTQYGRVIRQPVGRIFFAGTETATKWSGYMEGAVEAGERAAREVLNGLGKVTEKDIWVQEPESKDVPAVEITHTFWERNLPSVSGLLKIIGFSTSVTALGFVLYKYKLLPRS

[9] = DRUGMATRIX: Calcium Channel Type L, Benzothiazepine radioligand binding (ligand: [3H] Diltiazem); assay type: cell membranes, Rattus norvegicus, Wistar, Brain, Membrane; conditions: Not Active = under 50% inhibition at 10 µM
[10] = molecular target: cGMP-specific 3',5'-cyclic phosphodiesterase (Homo sapiens, UniProt O76074); assay: DRUGMATRIX: Phosphodiesterase PDE5 enzyme inhibition (substrate: [3H]cGMP + cGMP); assay type: tissue-based, Platelet; conditions: platelet; Not Active = under 50% inhibition at 10 µM
[11] = molecular target: Protein kinase C alpha type (Homo sapiens, UniProt P17252); assay type: cell-based; conditions: sf9
[12] = molecular target: Carbonic anhydrase 2 (Homo sapiens, UniProt P00918); assay: DRUGMATRIX: Carbonic Anhydrase II enzyme inhibition (substrate: 4-Nitrophenyl acetate (4-NPA)); assay type: tissue-based, Erythrocyte; conditions: erythrocyte; Not Active = under 50% inhibition at 10 µM

Sequence of Cytochrome P450 2D6 (P10635 whole entry): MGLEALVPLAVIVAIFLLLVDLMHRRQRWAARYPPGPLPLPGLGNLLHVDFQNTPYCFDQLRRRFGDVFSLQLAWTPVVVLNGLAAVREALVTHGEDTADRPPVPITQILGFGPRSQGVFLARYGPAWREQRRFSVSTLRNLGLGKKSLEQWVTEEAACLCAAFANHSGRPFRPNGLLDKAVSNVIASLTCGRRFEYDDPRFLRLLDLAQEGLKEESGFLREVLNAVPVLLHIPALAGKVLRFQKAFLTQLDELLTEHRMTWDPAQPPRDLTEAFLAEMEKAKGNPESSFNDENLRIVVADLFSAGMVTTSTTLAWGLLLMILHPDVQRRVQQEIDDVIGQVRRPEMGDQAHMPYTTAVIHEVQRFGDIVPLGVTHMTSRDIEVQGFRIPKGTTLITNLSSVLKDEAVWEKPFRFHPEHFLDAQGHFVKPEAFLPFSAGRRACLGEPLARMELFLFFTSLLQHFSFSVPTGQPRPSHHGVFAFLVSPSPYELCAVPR
Sequence of Estrogen receptor beta (Q92731 whole entry): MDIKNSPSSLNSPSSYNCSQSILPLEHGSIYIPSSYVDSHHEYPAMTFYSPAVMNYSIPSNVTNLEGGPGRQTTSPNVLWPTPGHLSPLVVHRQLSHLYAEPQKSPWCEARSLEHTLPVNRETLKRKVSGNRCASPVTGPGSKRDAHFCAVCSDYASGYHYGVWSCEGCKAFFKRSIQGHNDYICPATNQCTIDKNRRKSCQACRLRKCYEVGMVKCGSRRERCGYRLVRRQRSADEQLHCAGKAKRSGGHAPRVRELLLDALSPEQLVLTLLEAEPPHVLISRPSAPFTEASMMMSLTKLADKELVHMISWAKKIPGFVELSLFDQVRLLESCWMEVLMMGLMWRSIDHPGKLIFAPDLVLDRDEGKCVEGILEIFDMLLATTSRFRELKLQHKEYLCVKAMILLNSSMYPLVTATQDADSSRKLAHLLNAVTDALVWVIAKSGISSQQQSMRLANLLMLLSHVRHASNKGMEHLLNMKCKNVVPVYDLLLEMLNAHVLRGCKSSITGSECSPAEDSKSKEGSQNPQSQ

O=C1OC2(c3ccc(O)cc3Oc3cc(O)ccc32)c2ccccc21 [FLUORESCEIN]
Not Active: IC50 [1] | Ki [1] | IC50 [2] | IC50 [3] | IC50 [4] | IC50 [5] | Ki [5] | IC50 [6] | Ki [6] | IC50 [7] | Ki [7] | IC50 [8] | IC50 [9] | Ki [9] | IC50 [10] | IC50 [11] | IC50 [12]

CC(=O)[C@@]1(O)CC[C@H]2[C@@H]3C[C@H](C)C4=CC(=O)C=C[C@]4(C)[C@@]3(F)[C@@H](O)C[C@@]21C [FLUOROMETHOLONE]
Not Active: IC50 [1] | Ki [1] | IC50 [2] | IC50 [3] | IC50 [4] | IC50 [5] | Ki [5] | IC50 [6] | Ki [6] | IC50 [7] | Ki [7] | IC50 [8] | IC50 [9] | Ki [9] | IC50 [10] | IC50 [11] | IC50 [12]

O=c1[nH]cc(F)c(=O)[nH]1 [FLUOROURACIL]
Not Active: IC50 [1] | Ki [1] | IC50 [2] | IC50 [3] | IC50 [4] | IC50 [5] | Ki [5] | IC50 [6] | Ki [6] | IC50 [7] | Ki [7] | IC50 [8] | IC50 [9] | Ki [9] | IC50 [10] | IC50 [11] | IC50 [12]

CC[N+](CC)(CC)CCOc1cccc(OCC[N+](CC)(CC)CC)c1OCC[N+](CC)(CC)CC.[I-].[I-].[I-] [GALLAMINE TRIETHIODIDE]
Not Active: IC50 [1] | Ki [1] | IC50 [2] | IC50 [3] | IC50 [4] | IC50 [5] | Ki [5] | IC50 [6] | Ki [6] | IC50 [7] | Ki [7] | IC50 [8] | IC50 [9] | Ki [9] | IC50 [10] | IC50 [11] | IC50 [12]

Nc1nc2c(ncn2COC(CO)CO)c(=O)[nH]1 [GANCICLOVIR]
Not Active: IC50 [1] | Ki [1] | IC50 [2] | IC50 [3] | IC50 [4] | IC50 [5] | Ki [5] | IC50 [6] | Ki [6] | IC50 [7] | Ki [7] | IC50 [8] | IC50 [9] | Ki [9] | IC50 [10] | IC50 [11] | IC50 [12]

COc1c(N2CCNC(C)C2)c(F)cc2c(=O)c(C(=O)O)cn(C3CC3)c12 (centres undefined) [GATIFLOXACIN]
Not Active: IC50 [1] | Ki [1] | IC50 [2] | IC50 [3] | IC50 [4] | IC50 [5] | Ki [5] | IC50 [6] | Ki [6] | IC50 [7] | Ki [7] | IC50 [8] | IC50 [9] | Ki [9] | IC50 [10] | IC50 [11] | IC50 [12]

CC1(C)[C@@H](O[C@H]2O[C@H](C(=O)O)[C@@H](O)[C@H](O)[C@H]2O[C@@H]2O[C@H](C(=O)O)[C@@H](O)[C@H](O)[C@H]2O)CC[C@]2(C)[C@H]3C(=O)C=C4[C@@H]5C[C@@](C)(C(=O)O)CC[C@]5(C)CC[C@@]4(C)[C@]3(C)CC[C@@H]12 [GLYCYRRHIZIN]
Not Active: IC50 [1] | Ki [1] | IC50 [2] | IC50 [3] | IC50 [4] | IC50 [5] | Ki [5] | IC50 [6] | Ki [6] | IC50 [7] | Ki [7] | IC50 [8] | IC50 [9] | Ki [9] | IC50 [10] | IC50 [11] | IC50 [12]
